Data published in patent US10392379B2, “Hepatitis B core protein modulators” (Assembly Biosciences, Inc., priority 2015, dated 2019).

Key:
HBV = assay: Viral load production in AD38 cells by quantitative PCR of the core sequence; format: cell-based; details: Hepatitis B virus, 144 h, 10 μM compound, 6 days, supernatant qPCR, relative to DMSO control, read-out: AD38 Viral Load (%) (VL with cmpd/VL in DMSO control) at 10 μM
Method: (§1) AD38 cells were then re-suspended with 10 mL of Treatment Medium and counted. Wells of a collagen coated 96-well NUNC microtiter plate were seeded at 50,000/well in 180 μL of Treatment Medium, and 20 μL of in treatment media with either 10% DMSO (Control) or a 10× solution of compound in 10% DMSO was added. Plates were incubated for 6 days at 37° C.
Viral load production was assayed by quantitative PCR of the core sequence. […] The PCR mixture was incubated at 45° C. for 5 minutes, then 95° C. for 10 min, followed by 40 cycles of 10 seconds at 95° C. and 20 seconds at 60° C. Viral load was quantitated against known standards by using ViiA™ 7 Software. Viral load in the supernatant from wells with treated cells were compared against viral load in supernatant from DMSO control wells (≥3 per plate).

AD38 cells = assay: Viability of AD38 cells (Promega CellTiter-Glo); format: cell-based; details: 10 μM compound, 6 days, DMSO controls = 100%
Method: as §1
At the end of compound treatment period cell viability was assessed using a Promega CellTiter-Glo protocol. All supernatant was removed the previously treated 96-well microtiter plate, and 50 μL Tetracycline-free treatment medium (DMEM/F12 (1:1), 1× Pen/step (cat#: 30-002-CL, Mediatech, Inc), with 2% FBS, Tet-system approved (cat#: 631106, Clontech), and 1% DMSO was added back to each well. Another 50 μL of CellTiter-Glo reagent solution (Promega, G7573) was then added at room temperature and the contents mixed for 2 minutes on an orbital shaker to induce cell lysis. This was followed by incubation at room temperature for 10 minutes to stabilize the luminescent signal. The luminescence was recorded for 0.2 seconds per well on a Tecan multimode platereader (Infinite M1000 pro). The luminescent signal from each well was normalized against that of untreated (DMSO) control wells. All results in Table 3 were reported with percent viability (with controls being 100%).

| Compound | activity at 10 µM (HBV) | AD38 Viability Normalized Result (cmpd/DMSO %) at 10 μM (AD38 cells) |
| --- | --- | --- |
| O=C(NCc1ccc(-c2ccc(O)cc2F)nc1)c1ccc2c(c1)NC(=O)c1ccccc1S2(=O)=O [Compound 785] | 2.1% | 94% |
| O=C(NCc1ccc(-c2ccccc2CO)nc1)c1ccc2c(c1)NC(=O)c1ccccc1S2(=O)=O [Compound 843] | 18.8% | 103% |
| O=C(NCc1cnc(-c2ccc(O)c(Cl)c2)nc1)c1ccc2c(c1)NC(=O)c1ccccc1S2(=O)=O [Compound 794] | 1.3% | 104% |
| O=C(NCc1cncnc1)c1ccc2c(c1)NC(=O)c1ccc(Cl)cc1S2 [Compound 542] | 1.6% | 106% |
| NC(=O)c1ccc(-c2ncc(CNC(=O)c3ccc4c(c3)NC(=O)c3ccccc3S4(=O)=O)cn2)cc1 [Compound 872, N-((2-(4-carbamoylphenyl)pyrimidin-5-yl)methyl)-11-oxo-10, 11-dihydrodibenzo[b,f][1,4]thiazepine-8-carboxamide 5,5-dioxide] | 5.2% | 104% |
| Cc1cc2c(cc1C(=O)NCc1cncnc1)NC(=O)c1ccccc1S2 [Compound 495] | 23.1% | 96% |
| N#Cc1ccc(-c2ccc(CNC(=O)c3ccc4c(c3)NC(=O)c3ccccc3S4(=O)=O)cn2)cc1 [Compound 867] | 0.6% | 86% |
| O=C(NCc1ccc(-c2ccc3[nH]ncc3c2)nc1)c1ccc2c(c1)NC(=O)c1ccccc1S2(=O)=O [Compound 780] | 1.8% | 106% |
| Cc1cc2c(cc1C(=O)NCc1cccnc1)NC(=O)c1ccccc1S2 [Compound 497] | 38.7% | 97% |
| N#Cc1ccc(-c2ccc(CNC(=O)c3ccc4c(c3)NC(=O)c3ccccc3S4(=O)=O)nc2)cc1 [Compound 869, N-((5-(4-cyanophenyl)pyridin-2-yl)methyl)-11-oxo-10,11-dihydrodibenzo[b, f][1,4]thiazepine-8-carboxamide 5,5-dioxide] | 13.3% | 83% |
| CC1c2ccc(C(=O)NCc3cccnc3)cc2NC(=O)c2ccccc21 (stereo not shown) [Compound 547] | 1.5% | 99% |
| O=C(NCc1ccc(-c2ccc(O)cc2Cl)nc1)c1ccc2c(c1)NC(=O)c1ccccc1S2(=O)=O [Compound 783] | 6.3% | 105% |
| O=C(NCc1ccc(-c2ccc(O)c(Cl)c2)nc1)c1ccc2c(c1)NC(=O)c1ccccc1S2(=O)=O [Compound 784] | 137% | 103% |
| O=C(NCc1cnc(-c2ccc(O)c(F)c2)nc1)c1ccc2c(c1)NC(=O)c1ccccc1S2(=O)=O [Compound 796] | 1.4% | 111% |
| NC(=O)c1ccc(-c2ccc(CNC(=O)c3ccc4c(c3)NC(=O)c3ccccc3S4(=O)=O)cn2)cc1 [Compound 868, N-((6-(4-carbamoylphenyl)pyridin-3-yl)methyl)-11-oxo-10,11-dihydrodibenzo[b,f][1,4]thiazepine-8-carboxamide 5,5-dioxide] | 27.7% | 103% |
| O=C(NCc1ccc(Cc2ccc(O)cc2)nc1)c1ccc2c(c1)NC(=O)c1ccccc1S2(=O)=O [Compound 825, N-((6-(4-hydroxybenzyl)pyridin-3-yl)methyl)-11-oxo-10,11-dihydrodibenzo[b,f][1,4]thiazepine-8-carboxamide 5,5-dioxide] | 6.6% | 90% |
| O=C(NCc1cnc(-c2ccc(O)cc2Cl)nc1)c1ccc2c(c1)NC(=O)c1ccccc1S2(=O)=O [Compound 793] | 3.5% | 103% |
